Source: PMC10150354, “Linearization of the Brevicidine and Laterocidine Lipopeptides Yields Analogues That Retain Full Antibacterial Activity” (Journal of Medicinal Chemistry, 2023)
≈ marks a conversion by molar mass, not a printed value. Where a SMILES comes first, the peptide text is derived from it. [ ]: non-standard residue; d: D form. The star is where a group is joined. Octanoyl(7-Me) = CC(C)CCCCCC(=O)*; dOrn = NCCC[C@@H](N)C(=O)O; Orn = NCCC[C@H](N)C(=O)O; Dap = NC[C@H](N)C(=O)O; Alloc = C=CCOC(=O)*; OAll = C=CCO*

Legend:
K. pneumoniae ATCC 13883 = type: cell-based, Klebsiella pneumoniae; conditions: microbroth dilution per CLSI, MHB, 18 h at 37 °C, visual inspection, three technical replicates
Experimental: (§1) Linear laterocidine (LL-OH, 4) and linear brevicidine (LB-OH, 5) were first synthesized by Fmoc SPPS, starting from 2-chlorotrityl (2-CT) chloride resin. The antibacterial activity of these peptides was then compared to brevicidine (1) and laterocidine (2) using minimum inhibitory concentration (MIC)/microbroth dilution assays (Table 1). The MICs of all peptides were determined against a panel of Gram-negative and Gram-positive ESKAPE pathogens. Additionally, a strain of E. coli carrying the mcr-1 gene was included in the panel. The mcr-1 gene is a transferrable plasmid that confers resistance against colistin, a last-resort antibiotic for Gram-negative infections, by reducing the overall negative charge of lipopolysaccharide (LPS) through modification of lipid A with phosphoethanolamine. The propensity for cationic antibiotics to bind to the cell membrane is therefore reduced. This gene has been observed in more than 27 bacterial species over six continents.[26] The spread of the mcr-1 gene could render colistin ineffectual; therefore, novel antibacterials are urgently required to overcome this form of resistance.
(§2) All minimum inhibitory concentrations (MICs) were determined according to Clinical and Laboratory Standards Institute (CLSI) guidelines. Blood agar plates were inoculated with glycerol stocks of E. coli ATCC 25922, K. pneumoniae ATCC 13883, A. baumannii ATCC 17961, P. aeruginosa PAO1, and S. aureus USA300. The inoculated agar plates were then incubated for 16 h at 37 °C. Individually grown colonies were subsequently used to inoculate 5 mL aliquots of TSB that were then incubated at 37 °C with shaking at 220 rpm. E. coli 25922 MCR-1 glycerol stock was used to inoculate 5 mL of TSB supplemented with kanamycin that was then incubated for 16 h at 37 °C with shaking at 220 rpm. The next day the culture was diluted 100-fold in TSB supplemented with kanamycin and incubated at 37 °C with shaking at 220 rpm. In parallel, the lipopeptide antibiotics DMSO stocks to be assessed were serially diluted with MHB in polypropylene 96-well plates (50 μL in each well). Colistin sulfate stocks were dissolved in water before being diluted with MHB. Aliquots of the inoculated TSB were incubated until an OD600 of around 0.5 was reached. The bacterial suspensions were then diluted with MHB (2 × 10^5 CFU/mL) and added to the microplates containing the test compounds (50 μL to each well). The well plates were sealed with an adhesive membrane and after 18 h of incubation at 37 °C with shaking at 600 rpm, the wells were visually inspected for bacterial growth. MIC values reported are based on three technical replicates and defined as the lowest concentration of the compound that prevented visible growth of bacteria.

E. coli (MCR-1) = type: cell-based, Escherichia coli; conditions: microbroth dilution per CLSI, MHB, 18 h at 37 °C, visual inspection, three technical replicates, E. coli 25922 carrying mcr-1
Experimental: as §1, §2

E. coli ATCC 25922 = type: cell-based, Escherichia coli; conditions: for MIC (µg/mL) against E. coli (ATCC 25922): (Supplement 2); for Antibacterial activity (MIC) E. coli ATCC 25922: microbroth dilution per CLSI, MHB, 18 h at 37 °C, visual inspection, three technical replicates
Experimental: as §1, §2

P. aeruginosa PAO1 = type: cell-based, Pseudomonas aeruginosa; conditions: microbroth dilution per CLSI, MHB, 18 h at 37 °C, visual inspection, three technical replicates
Experimental: as §1, §2

A. baumannii ATCC 17961 = type: cell-based, Acinetobacter baumannii; conditions: microbroth dilution per CLSI, MHB, 18 h at 37 °C, visual inspection, three technical replicates
Experimental: as §1, §2

S. aureus USA300 = type: cell-based, Staphylococcus aureus; conditions: microbroth dilution per CLSI, MHB, 18 h at 37 °C, visual inspection, three technical replicates
Experimental: as §1, §2

## C=CCOC(=O)NC[C@H](NC(=O)[C@H](Cc1c[nH]c2ccccc12)NC(=O)[C@@H](CCCN)NC(=O)CNC(=O)[C@H](CCCN)NC(=O)[C@@H](CCCN)NC(=O)[C@@H](Cc1c[nH]c2ccccc12)NC(=O)[C@@H](Cc1ccc(O)cc1)NC(=O)[C@@H](CO)NC(=O)CCCCCC(C)C)C(=O)N[C@H](C(=O)N[C@@H](CC(N)=O)C(=O)NCC(=O)NCC(N)=O)[C@@H](C)CC [LL(Dap[Alloc]9)-NH2 (50)] ({Octanoyl(7-Me)}-[dS][dY][dW][dOrn][Orn]G[dOrn]W[Dap](Alloc)INGG-NH2)
K. pneumoniae ATCC 13883
  Antibacterial activity (MIC) K. pneumoniae ATCC 13883: 4 µg/mL
E. coli (MCR-1)
  Antibacterial activity (MIC) E. coli (MCR-1): 4 µg/mL
E. coli ATCC 25922
  MIC (µg/mL) against E. coli (ATCC 25922): 2 µg/mL (≈ 1.18 µM)
  Antibacterial activity (MIC) E. coli ATCC 25922: 2 µg/mL
P. aeruginosa PAO1
  Antibacterial activity (MIC) P. aeruginosa PAO1: 8 µg/mL
A. baumannii ATCC 17961
  Antibacterial activity (MIC) A. baumannii ATCC 17961: 4 µg/mL
S. aureus USA300
  Antibacterial activity (MIC) S. aureus USA300: >32 µg/mL

## CC[C@H](C)[C@H](NC(=O)[C@H](CCC(N)=O)NC(=O)[C@H](Cc1c[nH]c2ccccc12)NC(=O)[C@@H](CCCN)NC(=O)CNC(=O)[C@H](CCCN)NC(=O)[C@@H](CCCN)NC(=O)[C@@H](Cc1c[nH]c2ccccc12)NC(=O)[C@@H](Cc1ccc(O)cc1)NC(=O)[C@@H](CO)NC(=O)CCCCCC(C)C)C(=O)N[C@@H](CC(N)=O)C(=O)NCC(=O)NCC(N)=O [LL(Gln9)-NH2 (48)] ({Octanoyl(7-Me)}-[dS][dY][dW][dOrn][Orn]G[dOrn]WQINGG-NH2)
K. pneumoniae ATCC 13883
  Antibacterial activity (MIC) K. pneumoniae ATCC 13883: 4 µg/mL
E. coli (MCR-1)
  Antibacterial activity (MIC) E. coli (MCR-1): 8 µg/mL
E. coli ATCC 25922
  MIC (µg/mL) against E. coli (ATCC 25922): 4 µg/mL (≈ 2.43 µM)
  Antibacterial activity (MIC) E. coli ATCC 25922: 4 µg/mL
P. aeruginosa PAO1
  Antibacterial activity (MIC) P. aeruginosa PAO1: 4 µg/mL
A. baumannii ATCC 17961
  Antibacterial activity (MIC) A. baumannii ATCC 17961: 8 µg/mL
S. aureus USA300
  Antibacterial activity (MIC) S. aureus USA300: >32 µg/mL

## C=CCOC(=O)CC[C@H](NC(=O)[C@H](Cc1c[nH]c2ccccc12)NC(=O)[C@@H](CCCN)NC(=O)CNC(=O)[C@H](CCCN)NC(=O)[C@@H](CCCN)NC(=O)[C@@H](Cc1c[nH]c2ccccc12)NC(=O)[C@@H](Cc1ccc(O)cc1)NC(=O)[C@@H](CO)NC(=O)CCCCCC(C)C)C(=O)N[C@H](C(=O)N[C@@H](CC(N)=O)C(=O)NCC(=O)NCC(N)=O)[C@@H](C)CC [LL(Glu[OAll]9)-NH2 (51)] ({Octanoyl(7-Me)}-[dS][dY][dW][dOrn][Orn]G[dOrn]WE(OAll)INGG-NH2)
K. pneumoniae ATCC 13883
  Antibacterial activity (MIC) K. pneumoniae ATCC 13883: >32 µg/mL
E. coli (MCR-1)
  Antibacterial activity (MIC) E. coli (MCR-1): 16 µg/mL
E. coli ATCC 25922
  MIC (µg/mL) against E. coli (ATCC 25922): 16 µg/mL (≈ 9.47 µM)
  Antibacterial activity (MIC) E. coli ATCC 25922: 16 µg/mL
P. aeruginosa PAO1
  Antibacterial activity (MIC) P. aeruginosa PAO1: >32 µg/mL
A. baumannii ATCC 17961
  Antibacterial activity (MIC) A. baumannii ATCC 17961: 16 µg/mL
S. aureus USA300
  Antibacterial activity (MIC) S. aureus USA300: >32 µg/mL

## CC[C@H](C)[C@H](NC(=O)[C@H](CC(C)C)NC(=O)[C@H](Cc1c[nH]c2ccccc12)NC(=O)[C@@H](CCCN)NC(=O)CNC(=O)[C@H](CCCN)NC(=O)[C@@H](CCCN)NC(=O)[C@@H](Cc1c[nH]c2ccccc12)NC(=O)[C@@H](Cc1ccc(O)cc1)NC(=O)[C@@H](CO)NC(=O)CCCCCC(C)C)C(=O)N[C@@H](CC(N)=O)C(=O)NCC(=O)NCC(N)=O [LL(Leu9)-NH2 (42)] ({Octanoyl(7-Me)}-[dS][dY][dW][dOrn][Orn]G[dOrn]WLINGG-NH2)
K. pneumoniae ATCC 13883
  Antibacterial activity (MIC) K. pneumoniae ATCC 13883: 8 µg/mL
E. coli (MCR-1)
  Antibacterial activity (MIC) E. coli (MCR-1): 8 µg/mL
E. coli ATCC 25922
  MIC (µg/mL) against E. coli (ATCC 25922): 4 µg/mL (≈ 2.45 µM)
  Antibacterial activity (MIC) E. coli ATCC 25922: 4 µg/mL
P. aeruginosa PAO1
  Antibacterial activity (MIC) P. aeruginosa PAO1: 8 µg/mL
A. baumannii ATCC 17961
  Antibacterial activity (MIC) A. baumannii ATCC 17961: 4 µg/mL
S. aureus USA300
  Antibacterial activity (MIC) S. aureus USA300: >32 µg/mL

## CC[C@H](C)[C@H](NC(=O)[C@H](CCSC)NC(=O)[C@H](Cc1c[nH]c2ccccc12)NC(=O)[C@@H](CCCN)NC(=O)CNC(=O)[C@H](CCCN)NC(=O)[C@@H](CCCN)NC(=O)[C@@H](Cc1c[nH]c2ccccc12)NC(=O)[C@@H](Cc1ccc(O)cc1)NC(=O)[C@@H](CO)NC(=O)CCCCCC(C)C)C(=O)N[C@@H](CC(N)=O)C(=O)NCC(=O)NCC(N)=O [LL(Met9)-NH2 (44)] ({Octanoyl(7-Me)}-[dS][dY][dW][dOrn][Orn]G[dOrn]WMINGG-NH2)
K. pneumoniae ATCC 13883
  Antibacterial activity (MIC) K. pneumoniae ATCC 13883: 4 µg/mL
E. coli (MCR-1)
  Antibacterial activity (MIC) E. coli (MCR-1): 4 µg/mL
E. coli ATCC 25922
  MIC (µg/mL) against E. coli (ATCC 25922): 4 µg/mL (≈ 2.42 µM)
  Antibacterial activity (MIC) E. coli ATCC 25922: 4 µg/mL
P. aeruginosa PAO1
  Antibacterial activity (MIC) P. aeruginosa PAO1: 4 µg/mL
A. baumannii ATCC 17961
  Antibacterial activity (MIC) A. baumannii ATCC 17961: 4 µg/mL
S. aureus USA300
  Antibacterial activity (MIC) S. aureus USA300: >32 µg/mL
